{"source": "patent US20230321179A1", "about": "“N-ACYL AMINO ACID PRODUCTS AND USES” (THE REGENTS OF THE UNIVERSITY OF MICHIGAN, priority 2020, published 2023)", "key": {"[1]": {"biological_target": "T1, PPARα (Homo sapiens, UniProt Q07869)", "T1 construct": "expressed in transfected cells; host or cells: COS-1", "T1 sequence (Q07869 1-468)": "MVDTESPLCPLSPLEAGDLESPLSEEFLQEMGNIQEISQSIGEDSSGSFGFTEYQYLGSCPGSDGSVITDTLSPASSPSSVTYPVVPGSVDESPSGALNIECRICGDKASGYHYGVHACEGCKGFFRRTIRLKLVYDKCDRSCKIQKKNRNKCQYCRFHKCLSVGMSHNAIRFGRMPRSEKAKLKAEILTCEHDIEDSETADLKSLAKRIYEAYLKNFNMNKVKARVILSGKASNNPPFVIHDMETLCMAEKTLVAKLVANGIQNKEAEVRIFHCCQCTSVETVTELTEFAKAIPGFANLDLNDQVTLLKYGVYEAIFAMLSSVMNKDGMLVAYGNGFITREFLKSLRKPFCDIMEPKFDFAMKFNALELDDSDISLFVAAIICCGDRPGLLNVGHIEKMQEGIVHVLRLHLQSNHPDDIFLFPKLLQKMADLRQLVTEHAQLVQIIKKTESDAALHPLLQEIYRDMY", "test": "PPREx3-TK-luciferase PPARα reporter assay in COS-1 cells", "format": "cell-based", "details": "24 h", "description": "COS-1 and HepG2 cells were obtained from the American Type Culture Collection (ATCC) and cultured at 37° C. and 5% CO2 in Dulbecco’s Modified Eagle Medium (DMEM, Gibco) supplemented with 10% fetal bovine serum (FBS, Sigma-Aldrich) and 1% Penicillin-Streptomycin (Pen-Strep, Gibco). For luciferase assays, COS-1 cells were seeded in 96-well plates. At 60-70% confluence, transfection was performed using Lipofectamine 3000 (Invitrogen) with PPREx3-TK-luciferase, PPARα and Renilla constructs at 80 ng, 10 ng and 10 ng, respectively. 24 h post-transfection, cells were serum-starved and treated with 10 µM of the PPARα activator WY-14643 (Cayman Chemicals, 70730), 1 mM of glycine or tripepetide glycine-glycine-leucine or 10 µM of N-acyl amino acids for 24 h (Cayman Chemicals, C20:4-Gly 90051, C18:1-Leu 20064). Luciferase activity was assessed using the Dual-Luciferase Reporter Assay System (Promega) and normalized by Renilla."}, "[2]": {"test_system": "C57BL/6J mice fed NASH diet", "test": "NASH diet mouse model, oral treatment with tripeptide glycine-glycine-leucine, glycine or leucine", "format": "in vivo", "description": "To explore the therapeutic potential of […] against NASH, an experimental approach to model advanced NAFLD was used. As described, C57BL/6J mice were fed a high-fat, high-fructose and high-cholesterol diet (NASH diet) for 12 weeks. After confirming NASH, the mice were randomized to receive orally […] at 0.125 or 0.5 mg/g/day, equivalent amounts of leucine, glycine or H2O for 12 additional weeks on NASH diet. Mice fed low-fat control diet (CD) and administered H2O served as control. Animal procedures were approved (PRO00008239) by the Institutional Animal Care & Use Committee of the University of Michigan (U-M) and performed in accordance with the institutional guidelines. Seven weeks-old male C57BL/were from Jackson Laboratories. After one week of acclimation, mice were fed ad libitum either low-fat control diet (CD, Research Diets D17072805, 10% fat) or high-fat, high-fructose and high-cholesterol diet (NASH diet, Research Diets D17010103). After confirming NASH, the mice were randomized to receive orally […] (Beijing SL Pharmaceutical) at 0.125 or 0.5 mg/g/day, equivalent amounts of leucine (0.17 mg/g/day, Sigma-AldrichL8912), glycine (0.33 mg/g/day, Sigma-Aldrich G5417) or H2O for 12 additional weeks on NASH diet. All histological procedures were performed by the In Vivo Animal Core (IVAC) Histology Laboratory at the U-M. Technicians were blinded to experimental groups. Formalin-fixed tissues were processed through graded alcohols and cleared with xylene followed by infiltration with molten paraffin using an automated VIP5 or VIP6 tissue processor (TissueTek, Sakura-Americas). Using a Histostar Embedding Station (ThermoFisher Scientific), tissues were then sectioned on a […] rotary microtome (ThermoFisher Scientific) at 4 μm thickness and mounted on glass slides. Slides were stained for hematoxylin and eosin (H&E, ThermoFisher Scientific). For Sirius Red staining, slides were treated with 0.2 phosphomolybdic acid for 3 min and transferred to 0.1% Sirius Red saturated in picric acid (Rowley Biochemical Inc.) for 90 min, then transferred to 0.01N hydrochloric acid for 3 min. Frozen section processing was used for Oil Red O staining. Formalin-fixed liver samples were cryoprotected in 20% sucrose at 4° C. overnight, blotted, then liquid nitrogen-snap frozen in OCT compound (Tissue-Tek, Cat #4583) and stored at -80° C. until ready for cryosectioning. Prior to sectioning, frozen blocks were brought up to about -20° C., then sectioned at 5 μm on a Cryotome SME (Thermo-Shandon, Cat# 77200227). Slides were stored at -80° C. until stained. Prior to staining, liver slides were thawed to room temperature for 30 min. Slides were post-fixed in 10% Neutral Buffered Formalin for 20 min, rinsed in DDW, followed by rinsing in 60% isopropanol before being placed in working Oil Red O-isopropanol stain (Rowley Biochemical Inc., H-503-1B) for 5 min. Slides were then rinsed in 60% isopropanol followed by three changes of DDW. Then, slides were nuclear counterstained in Harris Hematoxylin and mounted in Aqua-Mount (Lerner Laboratories, Cat# 13800) aqueous mounting media. Immunohistochemical staining was performed on a […] automated immunohistochemical stainer (Biocare Medical) with blocking for endogenous peroxidases and non-specific binding, followed by detection using a horseradish peroxidase biotin-free polymer based commercial detection system, disclosure with diaminobenzidine chromogen, and nuclear counterstaining with hematoxylin. Specific to F4/80, (Bio-Rad ABD Serotec, Cat# MCA497), the rat monoclonal primary antibody (clone CI:A3-1) was diluted to 1:400 in DaVinci Diluent (Biocare Medical, Cat# PD900) and incubated for 60 min followed by detection using Rat-on-Mouse HRP-Polymer, (Biocare Medical, Cat# RT517) 2-step probe-polymer incubation for 10 and 30 min respectively. H&E staining was used to score NAFLD activity score (NAS). Steatosis was scored from 0-3 (0: <5% steatosis; 1: 5-33%; 2: 34-66%; 3: >67%). […]"}, "[3]": {"test_system": "C57BL/6J mice fed NASH diet", "test": "Treatment of NASH in mice with I.P. N-oleoyl leucine", "format": "in vivo", "details": "10 mg/kg/d I.P.", "description": "C57BL/6J mice were fed a standard diet (SD) or non-alcoholic steatohepatitis (NASH) diet for 16 weeks. After NASH confirmation, mice were randomized to receive 10 mg/kg/d (I.P.) N-oleoyl leucine (C18:1-Leu) or equivalent amounts of oleic acid (C18:1) or vehicle (EtOH) for an additional 6 weeks on the NASH diet. Control mice were fed the SD and administered vehicle."}, "[4]": {"test_system": "HepG2 cells", "test": "Seahorse oxygen consumption rate and dependency on FAO", "format": "cell-based", "details": "10 µM acute stimulation, increase attenuated by etomoxir 6 µM", "description": "HepG2 cells were obtained from the American Type Culture Collection (ATCC) and cultured at 37° C. and 5% CO2 in Dulbecco’s Modified Eagle Medium (DMEM, Gibco) supplemented with 10% fetal bovine serum (FBS, Sigma-Aldrich) and 1% Penicillin-Streptomycin (Pen-Strep, Gibco). Oxygen consumption rate (OCR) and dependency on FAO were assessed using a Seahorse XFe96 Analyzer (Agilent). HepG2 cells were seeded at 2.5x10^4 cells/well in XF96 cell culture microplates (Agilent). The next day, XFe96 sensor cartridges were hydrated in accordance with the manufacturer’s instructions. Cells were treated (port 1) with N-acyl amino acids (10 µM) or vehicle (EtOH), Etomoxir (Agilent, 6 µM, port 2) and finally with rotenone+antimycin A (R/A, Agilent, port 3)."}, "[5]": {"test_system": "Apolipoprotein E-deficient (Apoe-/-) mice", "test": "Treatment of atherosclerosis in Western diet-fed mice with I.P. N-oleoyl leucine", "format": "in vivo", "details": "7.5 mg/kg/d I.P., 4 weeks", "description": "Apolipoprotein E-deficient (Apoe-′-) mice were fed a Western diet (WD) for 8 weeks. Mice were randomized to receive 7.5 mg/kg/d (I.P.) N-oleoyl leucine (C18:1-Leu) or equivalent amounts of oleic acid (C18:1) for an additional 4 weeks on the WD (n=10)."}, "[6]": {"test_system": "HepG2 cells", "test": "TG biosynthesis and hydrolysis by [3H]-acetate incorporation", "format": "cell-based", "details": "10 µM; for rate of TG biosynthesis: 3 h [3H]-acetate; for rate of TG hydrolysis: additional 3 h after [3H]-acetate withdrawal", "description": "For the TG biosynthesis and hydrolysis assays, HepG2 cells were seeded in 12-well plates. At 60-70% confluence, cells were treated with N-acyl amino acids (10 µM) or vehicle (EtOH) in serum-free medium supplemented with 0.1% BSA and stimulated for 3 h at 37° C. with [3H]-acetate (3.3 µCi/ml, ART 0202, American Radiolabeled Chemicals) to assess the rate TG biosynthesis. In some wells, the cells were washed twice with PBS ([3H]-acetate withdrawal) and incubated for additional 3 h with N-acyl amino acids (10 µM) or vehicle (EtOH) in serum-free medium supplemented with 0.1% BSA to assess the rate TG hydrolysis. At the end of the above incubation periods, cells were washed with twice with PBS. Cellular lipids were extracted using hexane (≥99%, Sigma-Aldrich 32293) and isopropanol (≥99.5%, Fisher Scientific A426-4) at a 3:2 ratio (v:v), and the hexane phase was left to evaporate for 48 h. Next, lipids were separated by thin layer chromatography (TLC) on silica gel plates (60 F254, M1057150001, Fisher Scientific) and developed in hexane / ether (≥99.9%, 309966, Sigma-Alrich) / acetic acid (≥99.7%, A38-212, Fisher Scientific) at a 130:30:1.5 ratio (v:v:v). TG spots were visualized by iodine vapor (using an appropriate standard for identification) and [3H]-labels were counted by a Tri-Carb 2810TR liquid scintillation analyzer (PerkinElmer). Data were normalized to protein levels and presented as count per minutes (CPM)/mg cell protein."}, "[7]": {"details": "NASH diet, oral treatment 12 weeks"}, "[8]": {"details": "NASH diet, oral treatment 12 weeks, endpoint"}}}
{"smiles": "Cc1cccc(Nc2cc(Cl)nc(SCC(=O)O)n2)c1C", "note": "[WY-14643, reference compound]", "values": [{"measurement": "luciferase activity (PPARα activation), normalized by Renilla", "setting": "[1]; 10 µM", "value": "significantly increased"}]}
{"smiles": "NCC(=O)O", "note": "[glycine]", "values": [{"measurement": "luciferase activity (PPARα activation), normalized by Renilla", "setting": "[1]; concentrations of up to 1 mM", "value": "neither glycine or tripepetide glycine-glycine-leucine showed a significant effect"}, {"measurement": "decrease of hepatic levels of N-oleoyl glycine, N-arachidonoyl glycine and N-oleoyl leucine in NASH", "setting": "[2]; LC-MS/MS of liver, chronic treatment", "value": "rescued"}, {"measurement": "NASH diet-induced hepatomegaly", "setting": "[2]; [7]", "value": "significantly reduced"}, {"measurement": "hepatic fibrosis (Sirius Red staining)", "setting": "[2]; [7]", "value": "lower"}, {"measurement": "hepatic inflammation (F4/80 macrophage staining)", "setting": "[2]; [7]", "value": "lower"}, {"measurement": "hepatic steatosis (histological analyses)", "setting": "[2]; [7]", "value": "lower"}, {"measurement": "increase in plasma levels of alanine aminotransferase (ALT)", "setting": "[2]; [8]", "value": "attenuated"}, {"measurement": "increase in plasma levels of aspartate aminotransferase (AST)", "setting": "[2]; [8]", "value": "attenuated"}, {"measurement": "suppression of hepatic expression of PPARα and its target genes in NASH", "setting": "[2]; RNA-sequencing, liver", "value": "reversed"}]}
{"smiles": "CCCCCCCC/C=C\\CCCCCCCC(=O)N[C@@H](CC(C)C)C(=O)O", "note": "[N-oleoyl leucine]", "values": [{"measurement": "luciferase activity (PPARα activation), normalized by Renilla", "setting": "[1]; 10 µM", "value": "significantly increased"}, {"measurement": "body weight", "setting": "[3]; 6 weeks, NASH diet", "value": "lowers"}, {"measurement": "hepatomegaly", "setting": "[3]; 6 weeks, liver weight to body weight ratio", "value": "significantly lowers"}, {"measurement": "circulating liver enzymes", "setting": "[3]; 6 weeks, ALT, AST, ALP at endpoint", "value": "lowers"}, {"measurement": "NASH diet-induced hepatic and systemic inflammation", "setting": "[3]; 6 weeks, F4/80, plasma CCL2, CCL5", "value": "significantly lowers"}, {"measurement": "diet-induced NASH", "setting": "[3]; 6 weeks, H&E scoring, NAS", "value": "significantly lowers"}, {"measurement": "hepatic steatosis", "setting": "[3]; 6 weeks, Oil red O histology", "value": "significantly lowers"}, {"measurement": "NASH diet-induced hepatic fibrosis", "setting": "[3]; 6 weeks, Sirius red fibrosis score", "value": "significantly lowers"}, {"measurement": "systemic energy balance in NASH", "setting": "[3]; CLAMS: RER, energy expenditure, food intake, total activity", "value": "no significant effect"}, {"measurement": "adiposity", "setting": "[3]; NASH diet, NMR body composition", "value": "without affecting"}, {"measurement": "oxygen consumption rate (OCR)", "setting": "[4]", "value": "significantly increased"}, {"measurement": "body weight", "setting": "[5]; Western diet, vs oleic acid", "value": "no significant effects"}, {"measurement": "plasma cholesterol", "setting": "[5]; Western diet, vs oleic acid", "value": "no significant effects"}, {"measurement": "atherosclerotic plaque area", "setting": "[5]; aortic sinus H&E, vs oleic acid", "value": "significantly lowers"}, {"measurement": "lesional macrophages", "setting": "[5]; aortic sinus Mac-2, vs oleic acid", "value": "significantly lowers"}, {"measurement": "rate of TG biosynthesis", "setting": "[6]", "value": "attenuated"}, {"measurement": "rate of TG hydrolysis", "setting": "[6]", "value": "only N-arachidonoyl glycine (C20:4-Gly) significantly accelerated"}]}
{"smiles": "CCCCC/C=C\\C/C=C\\C/C=C\\C/C=C\\CCCC(=O)NCC(=O)O", "note": "[N-arachidonoyl glycine]", "values": [{"measurement": "luciferase activity (PPARα activation), normalized by Renilla", "setting": "[1]; 10 µM", "value": "significantly increased"}, {"measurement": "oxygen consumption rate (OCR)", "setting": "[4]", "value": "significantly increased"}, {"measurement": "rate of TG biosynthesis", "setting": "[6]", "value": "attenuated"}, {"measurement": "rate of TG hydrolysis", "setting": "[6]", "value": "significantly accelerated"}]}
{"smiles": "CCCCCCCC/C=C\\CCCCCCCC(=O)NCC(=O)O", "note": "[N-oleoyl glycine]", "values": [{"measurement": "luciferase activity (PPARα activation), normalized by Renilla", "setting": "[1]; 10 µM", "value": "significantly increased"}]}
